Laboratory results reported in ChEMBL document CHEMBL5352385, “Marine natural products and their synthetic analogs as promising antibiofilm agents for antibiotics discovery and development” (Eur J Med Chem, 2022).
Blank lines part the entries; values can stand above or below the compound they belong to.

Experiments:
[1] = Inhibition of quorum sensing system in Pseudomonas aeruginosa PA01 transfected with lasB-gfp
[2] = Inhibition of quorum sensing system in Pseudomonas aeruginosa PA01 transfected with […]
Candida albicans = assay: Antibiofilm activity against Candida albicans assessed as reduction in biofilm formation at 200 ug/ml measured after 48 hrs by crystal violet staining based analysis relative to control; format: functional; design: scale not given: the % may be the effect or the level left; conditions: dose 200 µg/ml
Staphylococcus aureus [3] = assay: Antibiofilm activity against methicillin-resistant Staphylococcus aureus CH 10850 at 32 ug/ml relative to control; format: functional; conditions: dose 32 µg/ml
Staphylococcus aureus [4] = assay: Antibiofilm activity against Staphylococcus aureus ATCC 6538 after 24 hrs by crystal violet staining based assay; format: functional, organism-based; conditions: ATCC 6538, 24 h
Staphylococcus aureus [5] = assay: Antibiofilm activity against Staphylococcus aureus ATCC 25923 after 24 hrs by crystal violet staining based assay; format: functional, organism-based; conditions: ATCC 25923, 24 h
Marinobacter nauticus = assay: Antibiofilm activity against Marinobacter hydrocarbonoclasticus at 31.25 ug/ml incubated for 24 hrs by crystal violet staining based analysis relative to control; format: functional; conditions: dose 31.25 µg/ml
Micrococcus luteus = assay: Antibiofilm activity against Micrococcus luteus at 31.25 ug/ml incubated for 48 hrs by crystal violet staining based analysis relative to control; format: functional; conditions: dose 31.25 µg/ml
[6] = tested on: Pseudooceanicola batsensis; assay: Antibiofilm activity against Pseudooceanicola-batsensis at 31.25 ug/ml incubated for 48 hrs by crystal violet staining based analysis relative to control; format: functional; conditions: dose 31.25 µg/ml
[7] = tested on: Staphylococcus epidermidis; assay: Antibiofilm activity against Staphylococcus epidermidis RP62A; format: functional
Pseudomonas aeruginosa [8] = assay: Antibiofilm activity against Pseudomonas aeruginosa assessed as inhibition of biofilm formation at 100 ug/ml incubated for 24 hrs by crystal violet staining based analysis relative to control; format: functional; design: scale not given: the % may be the effect or the level left; conditions: dose 100 µg/ml
Staphylococcus aureus [9] = assay: Antibiofilm activity against methicillin-resistant Staphylococcus aureus CH 10850 at 100 ug/ml relative to control; format: functional; conditions: dose 100 µg/ml
Streptococcus mutans [10] = assay: Antibiofilm activity against clinical isolate Streptococcus mutans 2.M7/4 assessed as inhibition of biofilm formation at 31.0 ug/ml relative to control; format: functional; design: scale not given: the % may be the effect or the level left; conditions: dose 31 µg/ml
Streptococcus mutans [11] = assay: Antibiofilm activity against Streptococcus mutans UA159 assessed as inhibition of biofilm formation at 31.0 ug/ml relative to control; format: functional; design: scale not given: the % may be the effect or the level left; conditions: dose 31 µg/ml
Streptococcus mutans [12] = assay: Antibiofilm activity against Streptococcus mutans UA159 assessed as inhibition of biofilm formation; format: functional, organism-based
Staphylococcus aureus [13] = assay: Antibiofilm activity against methicillin-resistant Staphylococcus aureus ATCC 6538 at 100 ug/ml incubated for 24 hrs by crystal violet staining based microplate reader method relative to control; format: functional; conditions: dose 100 µg/ml
Pseudomonas aeruginosa [14] = assay: Antibiofilm activity against Pseudomonas aeruginosa ATCC 15442 after 24 hrs by crystal violet staining based assay; format: functional, organism-based; conditions: ATCC 15442, 24 h
Pseudomonas aeruginosa [15] = assay: Antibiofilm activity against Pseudomonas aeruginosa PA01 at 128 ug/ml relative to control; format: functional; conditions: dose 128 µg/ml
Staphylococcus aureus [16] = assay: Antibiofilm activity against Staphylococcus aureus ATCC 6538 at 100 ug/ml incubated for 24 hrs by crystal violet staining based microplate reader method relative to control; format: functional; conditions: dose 100 µg/ml
Staphylococcus aureus [17] = assay: Antibiofilm activity against Staphylococcus aureus ATCC 6538 at 12.5 ug/ml relative to control; format: functional; conditions: dose 12.5 µg/ml
Staphylococcus aureus [18] = assay: Antibiofilm activity against methicillin-resistant Staphylococcus aureus CH 10850 at 50 ug/ml relative to control; format: functional; conditions: dose 50 µg/ml
[19] = tested on: Staphylococcus epidermidis; assay: Antibiofilm activity against […] incubated for 24 hrs; format: functional
Staphylococcus aureus [20] = assay: Antibiofilm activity against Staphylococcus aureus ATCC 6538 at 6.25 ug/ml relative to control; format: functional; conditions: dose 6.25 µg/ml

IC50 [1]: 8.53 µM
IC50 [2]: 8.7 µM
SMILES: O=C(NCCSSCCNC(=O)/C(Cc1cc(Br)c(O)c(-c2cc(C/C(=N\O)C(=O)NCCSSCCNC(=O)/C(Cc3ccc(O)c(Br)c3)=N/O)cc(Br)c2O)c1)=N\O)/C(Cc1ccc(O)c(Br)c1)=N\O

SMILES: C/C=C1/C(=O)/C(=C(/O)C(C)CCCCCC)C(=O)N1C (configuration not stated) [PENICILLENOL B1]
Activity (Candida albicans): 80%

SMILES: NCC(c1c[nH]c2cc(F)ccc12)c1c[nH]c2cc(F)ccc12
Activity (Staphylococcus aureus [3]): 61%

IC50 (Staphylococcus aureus [4]): 14.5 µM
IC50 (Staphylococcus aureus [5]): 3.7 µM
SMILES: COCCn1cc(-c2csc(-c3cn(C(=O)OC(C)(C)C)c4ccccc34)n2)c2cccnc21

SMILES: C=C1CCC(Br)C(C)(C)C1C[C@@]12OC(C)(C)[C@H](Cl)C=C1C(=O)c1c(O)cc(O)cc1C2=O (some centres not stated)
Activity (Marinobacter nauticus): 59.3%
Activity (Micrococcus luteus): 100%
Activity [6]: 26.2%

SMILES: CCCCC/C=C/C(=O)CCCCCCCC(=O)O
MBIC [7]: >128 µg/mL

SMILES: O=C(OCc1ccccc1)c1ccccc1 [BENZYL BENZOATE]
Activity (Pseudomonas aeruginosa [8]): 37.7%

SMILES: C[C@H]1C(=O)O[C@@H]2OC[C@@H]3CCC([C@@]4(C)CCCC(C)(C)C4)=C1[C@@H]32
Activity (Staphylococcus aureus [9]): 85.4%

SMILES: CCCCCCCCC[C@H](CC(=O)NCCCN)N1CC(=O)N[C@@H](Cc2ccccc2)C1=O
Activity (Streptococcus mutans [10]): 34.8%
Activity (Streptococcus mutans [11]): 90%

IC50 (Streptococcus mutans [12]): 2.5 µM
SMILES: Cc1ccc(S(=O)(=O)n2cc3c4c2C(=O)C(NCc2ccc(Cl)cc2)=CC4=NCC3)cc1

SMILES: CCCCCCC(C)/C(O)=C1\C(=O)[C@H](C(C)O)N(C)C1=O (some centres not stated)
Activity (Candida albicans): 80%

SMILES: CC(=O)O[C@H]1C[C@@H]2C(CO)=C[C@]3(C=C(C)C[C@@H](/C=C(\C)CCC=C(C)C)O3)O[C@@H]2C=C1C
Activity (Staphylococcus aureus [13]): 50%

SMILES: C=C1CCC(Br)C(C)(C)C1C[C@@]12OC(C)(C)[C@H](Cl)C[C@]1(Cl)C(=O)c1c(O)cc(O)cc1C2=O (some centres not stated)
Activity (Marinobacter nauticus): 59.3%
Activity (Micrococcus luteus): 100%
Activity [6]: 26.2%

IC50 (Staphylococcus aureus [4]): 20.7 µM
IC50 (Staphylococcus aureus [5]): 1.7 µM
IC50 (Pseudomonas aeruginosa [14]): 9.7 µM
SMILES: COCCn1cc(-c2nc(-c3c[nH]c4ncccc34)cs2)c2cc(Br)ccc21

SMILES: CC(C)=CCC/C(C)=C\C[C@@]12OC(C)(C)[C@H](Cl)C[C@]1(Cl)C(=O)c1c(cc(O)c(C)c1O)C2=O
Activity (Marinobacter nauticus): 28%

SMILES: C=C(C)C(=O)CC/C(C)=C/C[C@@]12OC(C)(C)[C@H](Cl)C[C@]1(Cl)C(=O)c1c(O)cc(O)cc1C2=O
Activity (Marinobacter nauticus): 43.4%
Activity (Micrococcus luteus): 87.3%

SMILES: O=C1Nc2cc(Br)ccc2[C@@]1(c1c[nH]c2ccccc12)C1CNc2ccccc21 (some centres not stated)
Activity (Pseudomonas aeruginosa [15]): 41.76%

SMILES: CC(C)=CCC/C(C)=C/[C@@H]1CC(C)=C[C@]2(C=C(CO)[C@H]3C[C@@H](O)C(C)=C[C@H]3O2)O1
Activity (Staphylococcus aureus [16]): >95%

SMILES: CC(C)=CCC/C(C)=C\C[C@@]12OC(C)(C)[C@H](Cl)C=C1C(=O)c1c(cc(O)c(C)c1O)C2=O
Activity (Marinobacter nauticus): 23.4%

SMILES: C=C(C)C(O)CC/C(C)=C/C[C@@]12OC(C)(C)[C@H](Cl)C[C@]1(Cl)C(=O)c1c(O)cc(O)cc1C2=O (some centres not stated)
Activity (Marinobacter nauticus): 56.9%
Activity (Micrococcus luteus): 97%
Activity [6]: 13.4%

SMILES: CC1=C2C(=CO[C@H](C)[C@H]2C)C(O)=C(C(=O)O)C1=O [CITRININ]
Activity (Staphylococcus aureus [17]): >50%

IC50 (Streptococcus mutans [12]): 0.4 µM
SMILES: Cc1ccc(S(=O)(=O)n2cc3c4c2C(=O)C(NCCc2ccc5c(c2)COC5)=CC4=NCC3)cc1

SMILES: COC(=O)[C@H](C)c1c([C@@]2(C)CCCC(C)(C)C2)ccc2c1[C@H](O)OC2=O
Activity (Staphylococcus aureus [18]): 97.8%

IC50 (Staphylococcus aureus [4]): 13.2 µM
IC50 (Staphylococcus aureus [5]): 1.27 µM
IC50 (Pseudomonas aeruginosa [14]): 9.9 µM
SMILES: Cn1cc(-c2csc(-c3cn(CCN)c4ccc(F)cc34)n2)c2cccnc21

SMILES: CC(=O)OCC1=C[C@]2(C=C(C)C[C@@H](/C=C(\C)CCC=C(C)C)O2)O[C@@H]2C=C(C)C(=O)C[C@H]12
Activity (Staphylococcus aureus [13]): 50%

SMILES: Cn1c(-c2nnc(-c3ccc(N)cc3)o2)cc(Br)c1Br
MBIC [19]: 3.125 µg/mL

SMILES: COC(=O)[C@@]12Oc3ccc(-c4ccc5c(c4O)C(=O)C4=C(O)C[C@H](C)[C@@H](O)[C@]4(C(=O)OC)O5)c(O)c3C(=O)C1=C(O)C[C@H](C)[C@H]2O
Activity (Staphylococcus aureus [20]): 97%

SMILES: CCCCC/C=C/C(=O)CCCCCCCCCC(=O)O
MBIC [7]: 16 µg/mL
